The assay addresses T1, His6-SCO4439 (Streptomyces coelicolor, UniProt Q9KZY7).
T1 construct: whole SCO4439 gene with N-terminal His6 tag in pET11a (pBRB7), expressed in E. coli JM109 (DE3), HisTrap purified, tag kept; native protein 84 kDa; tag followed by VARED (from primer BRB7F)
Kind of assay: D-Ala release, D-amino acid oxidase-peroxidase coupled colorimetric assay. Format: biochemical.

From paper PMC4751497, “Characterization of SCO4439, a D-alanyl-D-alanine carboxypeptidase involved in spore cell wall maturation, resistance, and germination in Streptomyces coelicolor” (Scientific Reports, 2016) come the findings set out here.

Molecules are shown by their SMILES.

T1 sequence (Q9KZY7 entry or part of it): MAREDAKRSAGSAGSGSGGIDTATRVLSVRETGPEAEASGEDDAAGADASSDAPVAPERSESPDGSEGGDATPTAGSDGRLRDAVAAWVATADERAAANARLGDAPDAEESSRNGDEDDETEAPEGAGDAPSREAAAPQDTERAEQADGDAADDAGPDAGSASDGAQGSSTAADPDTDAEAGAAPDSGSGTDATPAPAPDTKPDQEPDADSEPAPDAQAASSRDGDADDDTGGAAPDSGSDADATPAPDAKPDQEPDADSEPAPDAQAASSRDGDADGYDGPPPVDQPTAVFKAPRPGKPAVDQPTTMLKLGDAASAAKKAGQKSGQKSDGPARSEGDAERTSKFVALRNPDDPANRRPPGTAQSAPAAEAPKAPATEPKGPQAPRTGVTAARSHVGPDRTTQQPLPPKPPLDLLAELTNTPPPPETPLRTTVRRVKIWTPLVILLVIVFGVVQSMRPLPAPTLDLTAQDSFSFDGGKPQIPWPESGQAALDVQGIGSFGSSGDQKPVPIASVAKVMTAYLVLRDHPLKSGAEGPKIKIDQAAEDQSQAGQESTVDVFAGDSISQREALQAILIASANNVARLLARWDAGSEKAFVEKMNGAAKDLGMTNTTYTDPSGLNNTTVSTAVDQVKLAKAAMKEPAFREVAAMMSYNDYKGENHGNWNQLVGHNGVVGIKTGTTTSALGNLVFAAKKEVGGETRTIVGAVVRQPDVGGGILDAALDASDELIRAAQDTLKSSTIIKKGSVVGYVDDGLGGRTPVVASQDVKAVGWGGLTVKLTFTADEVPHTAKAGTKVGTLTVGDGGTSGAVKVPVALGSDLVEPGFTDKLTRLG

With `CC1(C)S[C@@H]2[C@H](NC(=O)Cc3ccccc3)C(=O)N2[C@H]1C(=O)O` [penicillin G], the IC50 (commonly the concentration that gives 50% inhibition) was 1 mM.
